Test results as given in ChEMBL document CHEMBL1142695, “Discovery of functionally selective 7,8,9,10-tetrahydro-7,10-ethano-1,2,4-triazolo[3,4-a]phthalazines as GABA A receptor agonists at the alpha3 subunit” (J Med Chem, 2005).

Legend:
Assay type in all cases: cell-based
[1] = target: T1, GABA-A receptor; alpha-2/beta-3/gamma-2 (Homo sapiens, UniProt P18507+P28472+P47869); assay: Inhibition of [3H]Ro-151788 binding to recombinant human gamma-aminobutyric acid A receptor alpha-2-beta-3-gamma-2 subtype expressed in L (tk-) cells
T1 sequence (P18507 whole entry): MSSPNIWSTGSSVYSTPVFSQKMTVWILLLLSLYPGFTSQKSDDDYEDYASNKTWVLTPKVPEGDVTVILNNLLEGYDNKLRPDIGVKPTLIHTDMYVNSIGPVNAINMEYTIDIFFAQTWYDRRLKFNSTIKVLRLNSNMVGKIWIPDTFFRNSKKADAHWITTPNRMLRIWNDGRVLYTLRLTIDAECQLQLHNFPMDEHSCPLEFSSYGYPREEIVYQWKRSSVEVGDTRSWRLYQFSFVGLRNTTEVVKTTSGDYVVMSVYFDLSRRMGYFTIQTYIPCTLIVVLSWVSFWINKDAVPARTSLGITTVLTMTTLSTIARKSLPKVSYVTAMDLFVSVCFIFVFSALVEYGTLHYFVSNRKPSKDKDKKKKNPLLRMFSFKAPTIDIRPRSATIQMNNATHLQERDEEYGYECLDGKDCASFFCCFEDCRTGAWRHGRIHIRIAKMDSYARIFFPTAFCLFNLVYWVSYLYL
T1 sequence (P28472 whole entry): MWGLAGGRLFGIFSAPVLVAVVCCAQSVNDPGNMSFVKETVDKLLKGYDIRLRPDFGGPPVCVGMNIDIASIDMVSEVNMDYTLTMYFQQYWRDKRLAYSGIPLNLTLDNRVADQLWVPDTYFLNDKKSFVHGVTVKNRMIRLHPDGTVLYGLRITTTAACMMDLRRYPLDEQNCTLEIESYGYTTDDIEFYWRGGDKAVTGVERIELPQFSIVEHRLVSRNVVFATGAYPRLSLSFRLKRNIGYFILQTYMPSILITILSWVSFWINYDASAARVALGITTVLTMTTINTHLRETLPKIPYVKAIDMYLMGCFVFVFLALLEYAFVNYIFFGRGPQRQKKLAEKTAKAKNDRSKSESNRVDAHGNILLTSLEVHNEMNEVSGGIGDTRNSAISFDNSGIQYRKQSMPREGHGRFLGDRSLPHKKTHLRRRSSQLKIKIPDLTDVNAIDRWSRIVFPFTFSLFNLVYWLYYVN
T1 sequence (P47869 whole entry): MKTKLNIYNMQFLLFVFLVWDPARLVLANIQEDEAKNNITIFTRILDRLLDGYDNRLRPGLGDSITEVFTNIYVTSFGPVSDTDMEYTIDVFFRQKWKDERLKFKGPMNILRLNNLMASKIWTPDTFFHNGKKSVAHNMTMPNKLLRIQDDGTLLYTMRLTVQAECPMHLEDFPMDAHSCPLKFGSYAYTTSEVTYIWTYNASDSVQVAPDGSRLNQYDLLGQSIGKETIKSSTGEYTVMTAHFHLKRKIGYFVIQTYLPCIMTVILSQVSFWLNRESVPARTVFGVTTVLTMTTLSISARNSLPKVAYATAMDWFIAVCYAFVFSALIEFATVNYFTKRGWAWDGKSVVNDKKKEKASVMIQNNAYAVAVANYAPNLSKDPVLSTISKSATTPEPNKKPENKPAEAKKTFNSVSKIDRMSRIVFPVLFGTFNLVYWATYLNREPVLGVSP

[2] = target: T2, GABA-A receptor; alpha-3/beta-3/gamma-2 (Homo sapiens, UniProt P18507+P28472+P34903); assay: Inhibition of [3H]Ro-151788 binding to recombinant human gamma-aminobutyric-acid A receptor alpha-3-beta-3-gamma-2 subtype expressed in L (tk-) cells
T2 sequence (P18507 whole entry): T1 sequence (P18507 whole entry)
T2 sequence (P28472 whole entry): T1 sequence (P28472 whole entry)
T2 sequence (P34903 whole entry): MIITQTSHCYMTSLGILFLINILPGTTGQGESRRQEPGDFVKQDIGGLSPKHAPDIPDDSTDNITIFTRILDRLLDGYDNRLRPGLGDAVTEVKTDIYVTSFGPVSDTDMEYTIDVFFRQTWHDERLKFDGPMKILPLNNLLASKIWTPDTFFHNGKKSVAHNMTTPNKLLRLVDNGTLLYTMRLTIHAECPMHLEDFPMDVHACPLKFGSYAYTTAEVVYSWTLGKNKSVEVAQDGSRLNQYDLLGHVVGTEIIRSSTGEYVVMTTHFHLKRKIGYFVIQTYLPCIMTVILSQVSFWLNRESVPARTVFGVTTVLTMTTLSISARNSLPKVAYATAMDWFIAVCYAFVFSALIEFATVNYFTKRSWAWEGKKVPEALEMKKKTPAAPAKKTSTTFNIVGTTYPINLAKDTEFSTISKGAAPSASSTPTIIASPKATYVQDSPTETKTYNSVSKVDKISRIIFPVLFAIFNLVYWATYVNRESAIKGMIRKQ

[3] = target: T3, GABA-A receptor; alpha-5/beta-3/gamma-2 (Homo sapiens, UniProt P18507+P28472+P31644); assay: Inhibition of [3H]Ro-151788 binding to recombinant human gamma-aminobutyric-acid A receptor alpha-5-beta-3-gamma-2 subtype expressed in L (tk-) cells
T3 sequence (P18507 whole entry): T1 sequence (P18507 whole entry)
T3 sequence (P28472 whole entry): T1 sequence (P28472 whole entry)
T3 sequence (P31644 whole entry): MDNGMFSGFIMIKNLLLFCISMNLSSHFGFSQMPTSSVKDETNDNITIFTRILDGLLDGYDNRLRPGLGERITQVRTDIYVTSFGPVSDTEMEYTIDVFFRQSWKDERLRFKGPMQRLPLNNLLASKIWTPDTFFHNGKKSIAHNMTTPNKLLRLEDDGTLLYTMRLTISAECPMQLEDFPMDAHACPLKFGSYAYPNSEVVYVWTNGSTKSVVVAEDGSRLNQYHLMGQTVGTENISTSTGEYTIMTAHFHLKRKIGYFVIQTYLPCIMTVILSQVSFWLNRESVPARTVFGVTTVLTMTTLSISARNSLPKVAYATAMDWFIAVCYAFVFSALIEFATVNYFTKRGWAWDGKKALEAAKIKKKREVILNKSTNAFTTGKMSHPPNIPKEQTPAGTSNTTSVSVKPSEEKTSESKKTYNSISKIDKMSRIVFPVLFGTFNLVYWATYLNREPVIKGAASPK

[4] = target: T4, GABA-A receptor; alpha-1/beta-3/gamma-2 (Homo sapiens, UniProt P14867+P18507+P28472); assay: Inhibition of [3H]Ro-151788 binding to recombinant human gamma-aminobutyric-acid A receptor alpha-1-beta-3-gamma-2 subtype expressed in L (tk-) cells
T4 sequence (P14867 whole entry): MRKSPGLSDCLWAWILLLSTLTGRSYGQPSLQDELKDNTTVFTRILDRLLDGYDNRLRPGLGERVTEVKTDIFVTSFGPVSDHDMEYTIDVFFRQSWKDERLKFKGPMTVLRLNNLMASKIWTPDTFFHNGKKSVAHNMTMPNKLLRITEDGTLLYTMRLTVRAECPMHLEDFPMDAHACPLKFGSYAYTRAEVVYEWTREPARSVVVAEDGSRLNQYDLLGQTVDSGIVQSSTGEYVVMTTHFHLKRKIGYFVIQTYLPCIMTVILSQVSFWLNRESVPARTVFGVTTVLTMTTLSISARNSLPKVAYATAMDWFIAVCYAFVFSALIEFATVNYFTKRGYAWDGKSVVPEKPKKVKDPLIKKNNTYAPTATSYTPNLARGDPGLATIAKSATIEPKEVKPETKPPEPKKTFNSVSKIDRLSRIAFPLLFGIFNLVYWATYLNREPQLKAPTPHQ
T4 sequence (P18507 whole entry): T1 sequence (P18507 whole entry)
T4 sequence (P28472 whole entry): T1 sequence (P28472 whole entry)

SMILES | Ki [1] [nM] | Ki [2] [nM] | Ki [3] [nM] | Ki [4] [nM]
Cc1cccc(COc2nn3c(-c4ccccc4)nnc3c3c2C2CCC3CC2)n1 | 36 | 20 | 2.6 | 160
c1ccc(-c2nnc3c4c(c(OCCc5ccccn5)nn23)C2CCC4CC2)cc1 | 270 | 200 | 44 | 480
COc1ccccc1-c1nnc2c3c(c(OCc4ccccn4)nn12)C1CCC3CC1 | > 1000 | > 1000 | 170 | > 1000
CN(C(=O)COc1nn2c(-c3ccccc3)nnc2c2c1C1CCC2CC1)c1ccccc1 | 72 | 41 | 7.4 | 21
Oc1cccnc1COc1nn2c(-c3ccccc3)nnc2c2c1C1CCC2CC1 | 470 | 180 | 34 | 270
N#Cc1ccc(COc2nn3c(-c4ccccc4)nnc3c3c2C2CCC3CC2)cc1 | 110 | 70 | 9.4 | 310
c1ccc(-c2nnc3c4c(c(OCc5nc6ccccc6s5)nn23)C2CCC4CC2)cc1 | > 1000 | 250 | 23 | > 1000
Fc1ccccc1-c1nnc2c3c(c(OCc4ccccn4)nn12)C1CCC3CC1 | 16 | 6.1 | 0.54 | 28
Cc1nnc2ccc(-c3cccc(C(F)(F)F)c3)nn12 [CI-218872] | 720 | 850 | 460 | 66
CN1CCCC(COc2nn3c(-c4ccccc4)nnc3c3c2C2CCC3CC2)C1 (stereo not drawn) | 260 | 460 | 100 | 750
Cc1cccc(CCCOc2nn3c(-c4ccccc4)nnc3c3c2C2CCC3CC2)n1 | 190 | 240 | 30 | 75
CSOc1ccc(COc2nn3c(-c4ccccc4)nnc3c3c2C2CCC3CC2)cc1 | 41 | 31 | 7.6 | 96
OCC1CCC(COc2nn3c(-c4ccccc4)nnc3c3c2C2CCC3CC2)CC1 (stereo in doubt) | > 1000 | > 1000 | 88 | > 1000
Cn1nnc(COc2nn3c(-c4ccccc4)nnc3c3c2C2CCC3CC2)n1 | 57 | 37 | 6.5 | 60
c1ccc(-c2nnc3c4c(c(OCc5cccs5)nn23)C2CCC4CC2)cc1 | > 500 | > 500 | > 500 | > 500
Cc1ccc(-c2nc3ccc(C)cn3c2CC(=O)N(C)C)cc1 [ZOLPIDEM] | 103 | 246 | > 3330 | 
